# According to patent publication US9950026B2, “Methods for reducing oxidative damage” (Cornell Research Foundation, Inc., priority 2004, dated 2018):
# Where a SMILES comes first, the peptide text is derived from it. [ ]: non-standard residue; d: D form. Dmt = Cc1cc(O)cc(C)c1C[C@H](N)C(=O)O
# What was measured:
# [1] = tested on: SH-SY5Y cells; test: Apoptosis by nuclear morphology (Hoechst 33342) after tBHP; type: cell-based, human
# Description: FIG. 20A-20C. […] (A)(a-c; a′-c′) N2A cells were treated with 50 μM tBHP alone or with SS-31 for 12 h. Cells were stained with Hoechst 33342 for 20 min., fixed, and imaged by fluorescent microscopy. (a) Untreated cells show uniformly stained nuclei (a′). […] (c) Cells treated with tBHP and 1 nM SS-31 had less nuclear changes (c′). […] Apoptotic cells were counted using MetaMorph software. *P<0.01 compared to untreated cells; *P<0.01 compared to tBHP alone. […] SH-SY5Y cells were treated with 25 μM tBHP for 24 h. *P<0.01 compared to untreated cells; *P<0.01 compared to tBHP alone.
# SH-SY5Y cells were grown on 96-well plates, treated with t-BHP (0.025 mM) in the absence or presence of SS-31 (10^−12M-10^−9M) at 37° C. for 24 h. All treatments were carried out in quadriplicates. Cells were then stained with […] Hoechst 33342 for 20 min, fixed with 4% paraformaldehyde, and imaged using a Zeiss fluorescent microscope (Axiovert 200M) equipped with the Zeiss Acroplan x20 objective. Nuclear morphology was evaluated using an excitation wavelength of 350±10 nm and a longpass filter of 400 nm for emission. All images were processed and analyzed using the MetaMorph software (Universal Imaging Corp., West Chester, Pa.). Uniformly stained nuclei were scored as healthy, viable neurons, while condensed or fragmented nuclei were scored as apoptotic.
# [2] = tested on: N2A cells; test: tBHP-induced LDH release; type: cell-based, murine; conditions: 100 μM tBHP
# Description: FIG. 18A-18B. SS-31 reduced tBHP-induced LDH release in SH-SY5Y (A) and N2A (B) cells. Cells were treated with 100 μM tBHP alone, or with SS-31, for 24 h. *P<0.05, **P<0.01, ***P<0.001, compared to tBHP alone.
# The loss of cell viability induced by 100 μM tBHP was accompanied by a significant increase in LDH release in SH-SY5Y (FIG. 18A) and N2A cell (FIG. 18B).
# [3] = tested on: N2A cells; test: Phosphatidylserine translocation, Annexin V and propidium iodide staining after tBHP; type: cell-based, murine; conditions: 50 μM tBHP, 1 nM SS-31, 6 h
# Description: FIG. 19A-19C. […] N2A cells were incubated with 50 μM tBHP for 6 h and stained with Annexin V and propidium iodide (PI). […] Combined staining with Annexin V and PI (red) indicate late apoptotic cells.
# The translocation of phosphatidylserine from the inner leaflet of the plasma membrane to the outer leaflet is observed early in the initiation of apoptosis. This can be observed with Annexin V, a phospholipid binding protein with high affinity for phosphatidylserine.
# [4] = tested on: C57BL/6 mice subjected to 30 min MCAO; test: Redox status (cysteine, ascorbate, GSH) after transient MCAO; type: in vivo; conditions: 2 mg/kg i.p. upon reperfusion, 6 h
# Description: FIG. 31A-31C. Effect of SS-31 peptide on ischemia-induced changes in cysteine (A) ascorbate (B), and GSH (C) levels, C57BL/6 mice were subjected to 30 min MCAO and treated with vehicle, SS-31 (2 mg/kg body weight) or SS-20 (2 mg/kg body eight) peptide immediately after reperfusion. Mice were sacrificed at 6 h postischemia. Values are expressed as percent increase (cysteine) or percent depletion (ascorbate and GSH) in ipsilateral side versus contralateral side. Error bars indicate SEM (n=4-6 animals per group).
# To test the efficacy of SS-3 1 on redox status, cysteine, ascorbate and GSH levels were determined 6 h after 30 min transient middle cerebral artery occlusion (MCAO) in mice treated intraperitoneally (i.p.) with saline (vehicle), SS-31 (2 mg/kg) or SS-20 (2 mg/kg) upon reperfusion. Values in FIG. 31 are expressed as percent increase (cysteine) and percent depletion (ascorbate and GSH) in the ipsilateral side compared to the contralateral side. Absolute values were originally expressed as nmoles/mg protein as shown in FIG. 30 and converted to percent difference. The percent ipsilateral cysteine increase was similar among vehicle-, SS-31-, and SS-20-treated groups (FIG. 31A).
# [5] = tested on: Diabetic DBA/2 mice; test: Marginal islet cell mass transplantation model; type: in vivo
# Description: FIG. 35A-35C. Reversal of diabetes following transplantation of a marginal mass of syngeneic islets. Diabetic DBA/2 mice received 200 syngeneic islet cells under the right kidney capsule. Reversal of diabetes was defined as random nonfasting blood glucose levels below 200 mg/dl on 3-consecutive days. (A) Blood glucose levels of each individual control mouse following transplantation of 200 syngeneic islets. (B) Blood glucose levels of each individual SS-31 treated mouse following transplantation of 200 syngeneic islets. (C) Reversal of diabetes following transplantation of a marginal islet cell mass in SS-31 treatment vs. control. Number of normoglycemic mice by day 1, 3, 5, 10 and 14 post transplantation and two-tailed P-valued calculated using chi-squared bivariate analysis are shown.
# In a marginal islet cell mass transplantation model, 0 of 8 recipients of islets isolated from pancreas harvested from the control mice had successful reversal of hyperglycemia (defined as three consecutive blood glucose levels<200 mg/dl), whereas sustained normoglycemia occurred in 5 of ten recipients of islets isolated from pancreas from the SS-31 treated donor mice (FIG. 35).
# [6] = tested on: isolated mouse liver mitochondria; test: H2O2 production by isolated mitochondria, luminol chemiluminescence; type: biochemical
Molecule,"number of apoptotic cells ([1]; 25 μM tBHP, 24 h)","apoptosis induced by a low dose of t-BHP ([1]; 0.025 mM t-BHP, 1 nM SS-31, 24 h)","percent of apoptotic cells ([1]; 24 h, t-BHP 0.05 mM)",LDH release ([2]; 0.1 and 1 nM of SS-31),LDH release / tBHP-induced cytotoxicity ([2]; 24 h),Annexin V-positive cells [3],propidium iodide staining [3],ischemia-induced GSH depletion in the cortex [4],percent ipsilateral cysteine increase [4],percent ipsilateral depletion of ascorbate [4],recipients with sustained normoglycemia ([5]; islets from SS-31 treated donor mice),"effect of discontinuation of SS-31 treatment on day 10 ([5]; mouse, in vivo)","time of reversal of hyperglycemia post-transplant ([5]; mouse, in vivo) [days]","antimycin-induced increase in H2O2 production ([6]; antimycin 1 μM, peptide 1.0 μM)","amount of H2O2 production ([6]; basal, 10 μM)"
"Cc1cc(O)cc(C)c1C[C@H](NC(=O)[C@H](N)CCCNC(=N)N)C(=O)N[C@@H](CCCCN)C(=O)N[C@@H](Cc1ccccc1)C(N)=O [SS-31, D-Arg-2′6′-Dmt-Lys-Phe-NH2] (H-[dR][Dmt]KF-NH2; N-terminus assumed)",dose-dependently reduced,prevents apoptosis,dose-dependently reduced,reduced significantly,dose-dependent decrease,reduction,no propidium iodide staining,significantly attenuated,similar,marginally but not significantly affected,5 of ten,did not result in return of hyperglycemia,≤ 1,–,–
"2′,6′-Dmt-Arg-Phe-Lys-NH2 [SS-02]",–,–,–,–,–,–,–,–,–,–,–,–,–,completely blocked,significantly reduced
